1 compound from PMC12140386, “Diallyl Trisulfide From Garlic Regulates RAB18 Phase Separation to Inhibit Lipophagy and Induce Cuproptosis in Hepatic Stellate Cells for Antifibrotic Effects” (Advanced Science, 2025) can be followed below.

Assay [1] deals with T1, purified RAB18 protein (GFP‐RAB18) (Homo sapiens, UniProt Q9NP72).
T1 construct: GFP-fusion RAB18, expressed in E. coli BL21 (DE3), Ni-NTA purified
The experiment in a line: FRAP of RAB18 droplets (also AFM). As to conditions: 10 µM DATs; 50 µM protein; 50 mM HEPES pH 7.4, 150 mM NaCl; no added CaCl2. In kind it is binding.

In assay [2] the target is T2, RAB18 protein in LX2 cells (Homo sapiens, UniProt Q9NP72).
T2 construct: endogenous RAB18 in human hepatic stellate cell line LX2 (CETSA)
The experiment in a line: cellular thermal shift assay. Type of assay: cell-based. As to conditions: 10 µM DATs, 24 h.

T2 sequence (Q9NP72 1-203): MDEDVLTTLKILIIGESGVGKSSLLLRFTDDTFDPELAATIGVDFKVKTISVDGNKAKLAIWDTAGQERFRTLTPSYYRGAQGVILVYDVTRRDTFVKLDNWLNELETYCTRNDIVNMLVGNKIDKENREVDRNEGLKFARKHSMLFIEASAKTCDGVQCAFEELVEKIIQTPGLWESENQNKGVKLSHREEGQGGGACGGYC
T1 sequence (Q9NP72 whole entry, the tested form may be a part): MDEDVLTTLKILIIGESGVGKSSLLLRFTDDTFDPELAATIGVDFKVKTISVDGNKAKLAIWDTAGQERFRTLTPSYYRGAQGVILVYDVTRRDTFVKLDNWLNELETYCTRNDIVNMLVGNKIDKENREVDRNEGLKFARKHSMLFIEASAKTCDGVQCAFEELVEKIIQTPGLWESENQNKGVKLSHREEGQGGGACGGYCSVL

Take `C=CCSSSCC=C` [DATs, Diallyl trisulfides]: the FRAP recovery percentage result in assay [1] is given as “~ ≈80%”. The CETSA result in assay [2] is “DATs exhibit a strong affinity for RAB18, effectively binding to and stabilizing the conformation of RAB18”.
